Source: ChEMBL document CHEMBL5634159, “Discovery of novel tumor-targeted near-infrared probes with 6-substituted pyrrolo[2,3-d]pyrimidines as targeting ligands” (Eur J Med Chem, 2023)
Calls of active or inactive are those of the source. The rule behind the calls is not given here.

What was measured:
[1] = Drug uptake in BALB/c mouse lung xenografted with human KB cells at 10 nmol measured for 8 hrs; format: ADME, tissue-based; conditions: in vivo
[2] = Drug uptake in BALB/c mouse intestine xenografted with human KB cells at 10 nmol measured for 8 hrs; format: ADME, tissue-based; conditions: in vivo
[3] = Drug uptake in BALB/c mouse heart xenografted with human KB cells at 10 nmol measured for 8 hrs; format: ADME, tissue-based; conditions: in vivo
[4] = Ex vivo biodistribution in BALB/c mouse tumor of human KB cells expressing folate receptor alpha measured for 8 hrs by imaging analysis; format: ADME, organism-based, Neoplasm
[5] = Drug uptake in BALB/c mouse liver xenografted with human KB cells at 10 nmol measured for 8 hrs; format: ADME, tissue-based; conditions: in vivo
[6] = Drug uptake in BALB/c mouse stomach xenografted with human KB cells at 10 nmol measured for 8 hrs; format: ADME, tissue-based; conditions: in vivo
Folate receptor beta = Folate receptor beta (Mus musculus, UniProt Q05685); test: Binding affinity to Folate receptor beta in mouse RAW264.7 cells assessed as dissociation constant; format: cell-based
Folate receptor beta, sequence (Q05685 whole entry): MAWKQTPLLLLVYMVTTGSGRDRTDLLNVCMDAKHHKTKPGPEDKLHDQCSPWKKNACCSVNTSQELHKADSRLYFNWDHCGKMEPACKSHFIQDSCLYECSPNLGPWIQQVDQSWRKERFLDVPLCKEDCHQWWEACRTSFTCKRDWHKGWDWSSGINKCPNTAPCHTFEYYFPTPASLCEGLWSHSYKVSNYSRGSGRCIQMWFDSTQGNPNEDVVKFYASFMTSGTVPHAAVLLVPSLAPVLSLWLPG

[7] = Drug uptake in BALB/c mouse spleen xenografted with human KB cells at 10 nmol measured for 8 hrs; format: ADME, tissue-based; conditions: in vivo
Folate receptor alpha = Folate receptor alpha (Homo sapiens, UniProt P15328); test: Binding affinity to Folate receptor alpha in human KB cells assessed as dissociation constant; format: cell-based
Folate receptor alpha, sequence (P15328 whole entry): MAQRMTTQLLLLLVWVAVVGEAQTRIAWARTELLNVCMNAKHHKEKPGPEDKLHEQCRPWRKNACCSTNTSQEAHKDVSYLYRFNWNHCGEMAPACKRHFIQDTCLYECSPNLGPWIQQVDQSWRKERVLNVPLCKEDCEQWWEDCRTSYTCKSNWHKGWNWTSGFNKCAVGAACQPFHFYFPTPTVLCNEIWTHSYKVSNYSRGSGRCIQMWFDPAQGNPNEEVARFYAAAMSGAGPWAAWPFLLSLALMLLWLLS

KB [8] = test: Binding affinity to Folate receptor in human KB cells assessed as relative fluorescence intensity incubated for compound for 1 hr by flow cytometry analysis; format: cell-based
[9] = Drug uptake in BALB/c mouse kidney xenografted with human KB cells at 10 nmol measured for 8 hrs; format: ADME, tissue-based; conditions: in vivo
HUVEC = test: Cytotoxicity against human HUVEC cells assessed as cell growth inhibition incubated for 24 hrs by CCK-8 assay; format: toxicity, cell-based
[10] = Ratio of biodistribution in tumor to heart of human KB cell xenografted in BALB/c mouse at 10 nmol measured for 8 hrs; format: ADME, organism-based; conditions: in vivo
[11] = Acute toxicity in ICR mouse assessed as effect on food intake at 10 micromol/ml measured for 14 days; conditions: in vivo, 336 h, dose 10 µmol/ml, time 14 day
[12] = Drug uptake in BALB/c nude mouse tumor xenografted with human KB cells assessed as increase in fluorescence signals measured for 2 days; format: ADME, tissue-based, Neoplasm; conditions: in vivo, 48 h, time 2 day
[13] = Ratio of biodistribution in tumor to liver of human KB cell xenografted in BALB/c mouse at 10 nmol measured for 8 hrs; format: ADME, organism-based; conditions: in vivo
KB [14] = test: Binding affinity to Folate receptor in human KB cells assessed as relative fluorescence intensity preincubated with compound for 1 hr followed by folic acid addition and measured after 1 hr by flow cytometry analysis; format: cell-based; conditions: time 2.0 hrs
[15] = Acute toxicity in ICR mouse assessed as animal death at 10 micromol/ml measured for 14 days; conditions: in vivo, 336 h, dose 10 µmol/ml, time 14 day
[16] = Ratio of biodistribution in tumor to lung of human KB cell xenografted in BALB/c mouse at 10 nmol measured for 8 hrs; format: ADME, organism-based; conditions: in vivo
[17] = Drug uptake in BALB/c mouse tumor xenografted with human KB cells at 10 nmol measured for 8 hrs in presence of folic acid; format: ADME, tissue-based, Neoplasm; conditions: in vivo
[18] = Acute toxicity in ICR mouse assessed as effect on body weight at 10 micromol/ml measured for 14 days; conditions: in vivo, 336 h, dose 10 µmol/ml, time 14 day
[19] = Acute toxicity in ICR mouse assessed as lung damage at 10 micromol/ml measured for 14 days by H and E staining based analysis; format: tissue-based; conditions: in vivo, 336 h, dose 10 µmol/ml, time 14 day
[20] = Acute toxicity in ICR mouse assessed as liver damage at 10 micromol/ml measured for 14 days by H and E staining based analysis; format: tissue-based; conditions: in vivo, 336 h, dose 10 µmol/ml, time 14 day
[21] = Drug uptake in BALB/c mouse tumor xenografted with human KB cells at 10 nmol measured for 8 hrs; format: ADME, tissue-based, Neoplasm; conditions: in vivo
[22] = Acute toxicity in ICR mouse assessed as heart damage at 10 micromol/ml measured for 14 days by H and E staining based analysis; format: tissue-based; conditions: in vivo, 336 h, dose 10 µmol/ml, time 14 day
[23] = Acute toxicity in ICR mouse assessed as kidney damage at 10 micromol/ml measured for 14 days by H and E staining based analysis; format: tissue-based; conditions: in vivo, 336 h, dose 10 µmol/ml, time 14 day
[24] = Elimination half life in BALB/c mouse at 10 nmol measured for 8 hrs; format: ADME; conditions: in vivo, read-out: beta t1/2 (converted)
[25] = Acute toxicity in ICR mouse assessed as spleen damage at 10 micromol/ml measured for 14 days by H and E staining based analysis; format: tissue-based; conditions: in vivo, 336 h, dose 10 µmol/ml, time 14 day
[26] = Drug uptake in BALB/c mouse tumor xenografted with human A549 cells at 10 nmol measured for 8 hrs in presence of folic acid; format: ADME, tissue-based, Neoplasm
[27] = Drug uptake in BALB/c nude mouse tumor xenografted with human A549 cells assessed as increase in fluorescence signals measured for 2 days; format: ADME, tissue-based, Neoplasm; conditions: 48 h, time 2 day
[28] = Half life in BALB/c mouse at 10 nmol measured for 8 hrs; format: ADME; conditions: in vivo
KB [29] = test: Binding affinity to Folate receptor in human KB cells assessed as relative fluorescence intensity incubated for 1 hr by flow cytometry analysis; format: cell-based
[30] = Drug uptake in human A549 cells assessed as increase in fluorescence intensity in presence of folic acid by fluorescence microscopic analysis; format: ADME, cell-based
[31] = Drug uptake in mouse RAW264.7 cells assessed as increase in fluorescence intensity in presence of folic acid by fluorescence microscopic analysis; format: ADME, cell-based
KB [32] = test: Binding affinity to Folate receptor in human KB cells assessed as increase in fluorescence intensity incubated for 2 hrs by fluorescence microscopic analysis; format: cell-based

Row | SMILES | Drug uptake [1] | Drug uptake [2] | Drug uptake [3] | Drug uptake [4] | Drug uptake [5] | Drug uptake [6] | Kd (Folate receptor beta) [nM] | Drug uptake [7] | Kd (Folate receptor alpha) [nM] | Drug uptake [9] | Drug uptake [12] | Activity (KB [8]) | Activity (HUVEC) | Activity (KB [14]) | Activity (KB [29]) | other results
1 | CC1(C)C(/C=C/C2=C(Oc3ccc(C[C@H](NC(=O)c4ccc(CCCCc5cc6c(=O)[nH]c(N)nc6[nH]5)cc4)C(=O)O)cc3)C(=C/C=C3/N(CCCCS(=O)(=O)O)c4ccccc4C3(C)C)/CCC2)=[N+](CCCCS(=O)(=O)[O-])c2ccccc21 |  |  |  |  |  |  | 16 |  | 14.2 |  | Active |  | Non-Toxic | Active | Active | Ratio [10]: 13; Activity [11]: Non-Toxic; Ratio [13]: 2; Activity [15]: Non-Toxic; Ratio [16]: 8; Drug uptake [17]: Not Active; Activity [18]: Non-Toxic; Activity [19]: Non-Toxic; Activity [20]: Non-Toxic; Drug uptake [21]: Active; Activity [22]: Non-Toxic; Activity [23]: Non-Toxic; half-life [24]: 60 min; Activity [25]: Non-Toxic; Drug uptake [26]: Not Active; Drug uptake [27]: Not Active; half-life [28]: 15 min
2 | CC1(C)C(/C=C/C2=C(Oc3ccc(C[C@H](NC(=O)c4ccc(NCc5cnc6nc(N)[nH]c(=O)c6n5)cc4)C(=O)O)cc3)C(=C/C=C3/N(CCCCS(=O)(=O)O)c4ccccc4C3(C)C)/CCC2)=[N+](CCCCS(=O)(=O)[O-])c2ccccc21 |  |  |  |  |  |  | 20.9 |  | 22.1 |  | Active |  | Non-Toxic |  | Active | 
3 | CC1(C)C(/C=C/C2=C(SC[C@H](NC(=O)CNC(=O)Cc3cc4c(=O)[nH]c(N)nc4[nH]3)C(=O)O)C(=C/C=C3/N(CCCCS(=O)(=O)O)c4ccccc4C3(C)C)/CCC2)=[N+](CCCCS(=O)(=O)[O-])c2ccccc21 | Not Active | Not Active | Not Active | Active | Not Active | Not Active | 58.9 | Not Active | 81.9 | Not Active |  | inactive | Non-Toxic |  |  | 

Further molecules by falling Kd (Folate receptor beta), results first:

Row | Drug uptake [1] | Drug uptake [2] | Drug uptake [3] | Drug uptake [4] | Drug uptake [5] | Drug uptake [6] | Kd (Folate receptor beta) [nM] | Drug uptake [7] | Kd (Folate receptor alpha) [nM] | Drug uptake [9] | Drug uptake [12] | SMILES | Activity (KB [8]) | Activity (HUVEC) | Activity (KB [14]) | Activity (KB [29]) | other results
4 | Not Active | Not Active | Not Active | Active | Not Active | Not Active | 47.9 | Not Active | 61.2 | Not Active |  | CC1(C)C(/C=C/C2=C(SC[C@@H](NC(=O)CC[C@H](NC(=O)CNC(=O)Cc3cc4c(=O)[nH]c(N)nc4[nH]3)C(=O)O)C(=O)O)C(=C/C=C3/N(CCCCS(=O)(=O)O)c4ccccc4C3(C)C)/CCC2)=[N+](CCCCS(=O)(=O)[O-])c2ccccc21 | inactive | Non-Toxic |  |  | 
5 | Not Active | Not Active | Not Active | Active | Not Active | Not Active | 26.1 | Not Active | 39.8 | Not Active | Active | CC1(C)C(/C=C/C2=C(Oc3ccc(C[C@H](NC(=O)CNC(=O)Cc4cc5c(=O)[nH]c(N)nc5[nH]4)C(=O)O)cc3)C(=C/C=C3/N(CCCCS(=O)(=O)O)c4ccccc4C3(C)C)/CCC2)=[N+](CCCCS(=O)(=O)[O-])c2ccccc21 | Active | Non-Toxic | Active |  | Drug uptake [30]: Not Active; Drug uptake [31]: Not Active; Activity (KB [32]): Active
6 |  |  |  |  | Active |  | 11 |  | 10.3 |  | Active | CC1(C)C(/C=C/C2=C(Oc3ccc(C[C@H](NC(=O)c4ccc(CCCCc5cc6c(=O)[nH]c(N)nc6[nH]5)s4)C(=O)O)cc3)C(=C/C=C3/N(CCCCS(=O)(=O)O)c4ccccc4C3(C)C)/CCC2)=[N+](CCCCS(=O)(=O)[O-])c2ccccc21 |  | Non-Toxic | Active | Active | 
